In patent EP1764363A2, “Substituted acetophenonederivatives” (Riemser Arzneimittel AG, priority 2005, dated 2007):
≈ marks a conversion by molar mass, not a printed value. Where “and” joins values, the source holds several entries; their conditions need not be identical. Equal values may be shown once. Marks after values point to notes of the source that are not given here.

How the values were obtained:
[1] = system: Staphylococcus aureus (Stamm ATCC 6538); assay: Mouse ear test (in vivo), antiseptic effect; design: key to Keimwachstum (grade): +++: totale Verhinderung des Keimwachstums; ++: Keimwachstum deutlich reduziert aber nicht völlig unterdrückt; details: mouse ears infected with S. aureus ATCC 6538; germ count vs infected untreated animal after 18 and 24 h
Salmonella sp = assay: Minimal inhibitory concentration (MHK), microtitre plate, TTC staining; type: cell-based; details: 48h, 36°C
Source text: Das Inokulum für die Tests wurde durch Verdünnung der Mikroorganismen in wässriger 0,85% NaCI-Lösung hergestellt, die Verdünnung auf die Stufe 0,5 nach McFarland eingestellt und die Konzentration spektrometrisch bei einer Wellenlänge von 580nm überprüft. Die Zellsuspensionen wurden zur Verwendung in den Tests auf 10^4 UFC/ml verdünnt. Die MHK-Tests erfolgten (Vorschrift nach J. N. P. Eloff, Planta Medica, Vol. 64, 1998, p 711-713) in Mikrotiterplatten mit 96 Vertiefungen. Serienverdünnungen der Konzentrationen lagen im Bereich 1,00 - 0,0015 mg/mL. Als Kontrollsubstanzen dienten Chloramphenicol bzw. Nistatin (Merck) in einer Konzentration von 0,062 - 0,005 mg/ml bzw. 0,0125 - 0,001 mg/ml. Das Inokulum (100 µl) wurde in alle Vertiefungen gegeben und die Platten für 48h bei 36°C inkubiert. Die antimikrobielle Aktivität wurde durch Zugabe von 20 µl einer 0,5% igen wässrigen Lösung von TTC (Tetrazoliumchlorid, Merck) pro Vertiefung detektiert. Die minimale Hemmkonzentration (MHK) wird als die niedrigste Konzentration der Verbindung definiert die das sichtbare Wachstum hemmt (durch TTC-Färbung indiziert).

S. epidermides = assay: as above; type: cell-based; details: 48h, 36°C
Rhodococcus equi = assay: as above; type: cell-based; details: 48h, 36°C
S. falcium = assay: as above; type: cell-based; details: 48h, 36°C
Escherichia coli = assay: as above; type: cell-based; details: 48h, 36°C
S. aureus = assay: as above; type: cell-based; details: 48h, 36°C
Micrococcus luteus = assay: as above; type: cell-based; details: 48h, 36°C
Bacillus subitilis = assay: as above; type: cell-based; details: 48h, 36°C
E. faecium = assay: as above; type: cell-based; details: 48h, 36°C
Colo205 [2] = assay: Chemosensitivity test (modified MTT test EZ4U); details: 4 days
Experimental: (§1) Die Verbindungen wurden in Dimethylsulfoxid (DMSO) als konzentrierte Stammlösungen (100-400fach) gelöst und für Proliferationstests in Zellkulturmedium verdünnt.
(§2) Die Zellen wurden auf Verunreinigung durch Mycoplasmen untersucht. Das Medium wurde mit 10% hitzeinaktiviertem foetalem Kälberserum (Seromed) and 4 mM Glutamin ergänzt. Die Zellen wurden durch Trypsinierung subkultiviert (0.03% Trypsin enthaltend 0.02% EDTA, dreimal pro Woche). Die Trypsinierung wurde durch Verwendung vom komplettem Zellkulturmedium gestoppt. Die Zellzahl wurde unter Verwendung eines TOA Sysmex Microzellzählers (TOA, Tokyo, Japan) bestimmt.
(§3) 10^4 Zellen/well wurden in Mikrotiterplatten mit 96 Vertiefungen (100 µl Medium) verteilt und die zu testenden Verbindungen wurden in einem weiteren Volumen von 100 µl hinzugegeben. Alle Verbindungen wurden entweder in 3 fixen Konzentrationen eingesetzt (für Tabellen 1-3) oder in 10 Stufen verdünnt unter Verwendung von Zweifachverdünnungsschritten zur Bestimmung der IC50-Werte (dreifache Ansätze, in den meisten Fällen vierfache Ansätze). Die Platten wurden, mit der Ausnahme der Tests zur Untersuchung des Zusammenhangs von Applikationsdauer und Zellreaktion, 4 Tage lang unter Zellkulturbedingungen inkubiert und die Zellviabilität wurde unter Verwendung eines modifizierten MTT Tests bestimmt (Formazan-Farbstoffbildung aus Tetrazoliumsalzen wie MTT, XTT, WST-1 und anderen durch das mitochondriale Reduktionsystem Succinattetrazolium Reductase EC 1.3.99.1.; EZ4U nichtradioaktiver Zellproliferations- und Cytotoxizitätstest, Biomedica, Wien, Österreich; Testmanual unter: www.bmgrp.com). Hierbei wurde die mitochondriale Aktivität und dadurch die Zellviabilität/Zellzahl bestimmt. Kurz gesagt wurde das gelieferte Substrat in einer Aktivatorlösung gelöst und 20 µl der Mischung wurden für 2 Stunden pro Vertiefung hinzugegeben (Gesamtvolumen 200 µl). Die optische Dichte wurde bei 450 nm unter Verwendung einer leeren Vertiefung als Referenz in einem Mikroplattenlesegerät (Eurogenetics, Brüssel, Belgien) bestimmt. Für jede Zell-Line wurden Vertiefungen verwendet um das MTT-Signal der Mediumkontrollen ohne Testsubstanzen zu bestimmen. Die Proliferation in den Test-Vertiefungen wurde in Bezug auf diese Kontrollwerte (100%) errechnet. Die Testergebnisse wurden zwischen 0,3 und 1,5 optischer Dichte für langsam bzw. schnellproliferierende Zellen erfasst. Diese Dosis-Wirkungs-Beziehungen wurden verwendet um die IC50 (Konzentration bei der das Wachstum um 50% gehemmt wird) unter Verwendung von PRISM Scientific Software (GraphPad Inc., San Diego, CA) zu berechnen.

KAL = assay: Chemosensitivity test (modified MTT test EZ4U); details: Homo sapiens, 96 h, read-out: IC50-Werte
Source text: as §1
(§4) Mit Ausnahme von SIM, KAL Ewingsarkom (in Wien etabliert) und LAN Neuroblastom (University of Los Angeles) wurden die Zell-Linien von der American Type Culture Collection (ATCC, Rockville, MD) bezogen und zum Erhalt von konfluenten Monolayerkulturen in RPMI-1640 Bikarbonatmedium (Seromed, Berlin, Deutschland) in einem Zellkulturschrank (5% CO2, 37°C) kultiviert. Mit der Ausnahme der murinen NlH3T3 Fibroblasten sind alle verwendeten Zell-Linien humanen Ursprungs. Die Zellen wurden auf Verunreinigung durch Mycoplasmen untersucht. Das Medium wurde mit 10% hitzeinaktiviertem foetalem Kälberserum (Seromed) and 4 mM Glutamin ergänzt. Die Zellen wurden durch Trypsinierung subkultiviert (0.03% Trypsin enthaltend 0.02% EDTA, dreimal pro Woche). Die Trypsinierung wurde durch Verwendung vom komplettem Zellkulturmedium gestoppt. Die Zellzahl wurde unter Verwendung eines TOA Sysmex Microzellzählers (TOA, Tokyo, Japan) bestimmt.
(§5) 10^4 Zellen/well wurden in Mikrotiterplatten mit 96 Vertiefungen (100 µl Medium) verteilt und die zu testenden Verbindungen wurden in einem weiteren Volumen von 100 µl hinzugegeben. […]

BT20 = assay: Cell count determination in a proliferation test; details: Homo sapiens, BT-20, read-out: Inhibition des Zellenwachstums (in %)
Source text: as §1
(§6) Mit Ausnahme von SIM, KAL Ewingsarkom (in Wien etabliert) und LAN Neuroblastom (University of Los Angeles) wurden die Zell-Linien von der American Type Culture Collection (ATCC, Rockville, MD) bezogen und zum Erhalt von konfluenten Monolayerkulturen in RPMI-1640 Bikarbonatmedium (Seromed, Berlin, Deutschland) in einem Zellkulturschrank (5% CO2, 37°C) kultiviert. […] Die Zellen wurden auf Verunreinigung durch Mycoplasmen untersucht. Das Medium wurde mit 10% hitzeinaktiviertem foetalem Kälberserum (Seromed) and 4 mM Glutamin ergänzt. Die Zellen wurden durch Trypsinierung subkultiviert (0.03% Trypsin enthaltend 0.02% EDTA, dreimal pro Woche). Die Trypsinierung wurde durch Verwendung vom komplettem Zellkulturmedium gestoppt. Die Zellzahl wurde unter Verwendung eines TOA Sysmex Microzellzählers (TOA, Tokyo, Japan) bestimmt.
(§7) Die Zellen wurden in Makroplatten mit 6 Vertiefungen (Greiner, Kremsmünster, Österreich) in einer anfänglichen Zelldichte von 200 000 Zellen/Vertiefung in 4 ml Medium unter Zellkulturbedingungen in Anwesenheit oder Abwesenheit der Testverbindungen (doppelte Ansätze) kultiviert. […]

WI38 = assay: Chemosensitivity test (modified MTT test EZ4U); details: for IC50: Homo sapiens, WI-38, 96 h, read-out: IC50-Werte; for Zellwachstum in % der Mediumkontrolle: 4 days
Experimental: as §1, §2, §3

Colo205 [3] = assay: Cell count determination in a proliferation test; details: Homo sapiens, COLO 205, read-out: Inhibition des Zellenwachstums (in %)
Source text: as §1, §6, §7

SIM = assay: Chemosensitivity test (modified MTT test EZ4U); details: Homo sapiens, 96 h, read-out: IC50-Werte
Source text: as §1, §4, §5

LAN1 = assay: Chemosensitivity test (modified MTT test EZ4U); details: Homo sapiens, LAN1, 96 h, read-out: IC50-Werte
Experimental: as §1, §2
(§8) 10^4 Zellen/well wurden in Mikrotiterplatten mit 96 Vertiefungen (100 µl Medium) verteilt und die zu testenden Verbindungen wurden in einem weiteren Volumen von 100 µl hinzugegeben. Alle Verbindungen wurden entweder in 3 fixen Konzentrationen eingesetzt (für Tabellen 1-3) oder in 10 Stufen verdünnt unter Verwendung von Zweifachverdünnungsschritten zur Bestimmung der IC50-Werte (dreifache Ansätze, in den meisten Fällen vierfache Ansätze). […]

SKOV3 = assay: Chemosensitivity test (modified MTT test EZ4U); details: Homo sapiens, SK-OV-3, 96 h, read-out: IC50-Werte
Experimental: as §1, §2, §8

EW-7 = assay: Chemosensitivity test (modified MTT test EZ4U); details: Homo sapiens, 96 h, read-out: IC50-Werte
Source text: as §1, §4, §5

SW620 = assay: Chemosensitivity test (modified MTT test EZ4U); details: Homo sapiens, SW-620, 96 h, read-out: IC50-Werte
Experimental: as §1, §2, §3

U87MG = assay: Chemosensitivity test (modified MTT test EZ4U); details: Homo sapiens, U-87 MG, 96 h, read-out: IC50-Werte
Source text: as §1, §4, §5

CRO2B = assay: Chemosensitivity test (modified MTT test EZ4U); details: Homo sapiens, 96 h, read-out: IC50-Werte
Experimental: as §1, §2, §3

J82 = assay: Chemosensitivity test (modified MTT test EZ4U); details: Homo sapiens, J82, 96 h, read-out: IC50-Werte
Experimental: as §1, §2, §8

T47D [4] = assay: Cell count determination in a proliferation test; details: Homo sapiens, read-out: Inhibition des Zellenwachstums (in %)
Source text: as §1, §6, §7

LNCaP = assay: Chemosensitivity test (modified MTT test EZ4U); details: Homo sapiens, 96 h, read-out: IC50-Werte
Source text: as §1, §4, §5

CaCo-2 = assay: Chemosensitivity test (modified MTT test EZ4U); details: Homo sapiens, Caco-2, 96 h, read-out: IC50-Werte
Experimental: as §1, §2, §3

MIAPaCa2 = assay: Chemosensitivity test (modified MTT test EZ4U); details: for IC50: Homo sapiens, MIA PaCa-2, 96 h, read-out: IC50-Werte; for Zellwachstum in % der Mediumkontrolle: 4 days
Experimental: as §1, §2, §3

T47D [5] = assay: Chemosensitivity test (modified MTT test EZ4U); details: 4 days
Experimental: as §1, §2, §3

[6] = Radical scavenger screening with DPPH radicals (DPPH test); details: Konzentrationen 500 und 1000µg/ml
Source text: […] die 6 Verbindungen HMF2, HMF-3, CH-1, L5, Q20 und […]. Die […] durch den DPPH-Test ermittelt, wobei sich die UV/VIS-Absorption des freien stabilen […] (Diphenyl-β-picrylhydrazin) in Abhängigkeit vom Zustand von […]. Die Auswertung erfolgt qualitativ (dünnschichtchromatographisch) und quantitativ (photometrisch) mit Ascorbinsäure […] Molyneux P. (2004) The use of the stabel free radical diphenylpicrylhydrazyl (DPPH) for estimating antioxidant activity. Songklanakarin J Sci Technol. 26(2): 211-219).

Candida albicans = assay: Minimal inhibitory concentration (MHK), microtitre plate, TTC staining; type: cell-based; details: 48h, 36°C

## COc1ccc(C=CC(=O)c2ccccc2O)cc1 [CH-1, 1-(2-Hydroxyphenyl)-3-(4-methoxyphenyl)propenon]
[1]
  Keimwachstum (grade): ++

## O=C(N[C@H](CO)[C@H](O)c1ccc([N+](=O)[O-])cc1)C(Cl)Cl [Chloramphenicol, reference compound]
Salmonella sp
  MHK-Werte: 0,06 mg/ml
S. epidermides
  MHK-Werte: 0,04 mg/ml
Rhodococcus equi
  MHK-Werte: 0,04 mg/ml
S. falcium
  MHK-Werte: 0,12 mg/ml
Escherichia coli
  MHK-Werte: 0,04 mg/ml
S. aureus
  MHK-Werte: 0,02 mg/ml
Micrococcus luteus
  MHK-Werte: 0,05 mg/ml
Bacillus subitilis
  MHK-Werte: 0,02 mg/ml
E. faecium
  MHK-Werte: 0,12 mg/ml

## O=C(/C=C/c1ccc(CO)o1)c1ccc(Cl)cc1 [HMF-2, 1-(4-Chlorophenyl)-3-(5-hydroxymethylfuran-2-yl)propenon]
Colo205 [2]; Colo205 (Colon), 5 µg/ml
  Zellwachstum in % der Mediumkontrolle: 78,6%
Colo205 [2]; Colo205 (Colon), 10 µg/ml
  Zellwachstum in % der Mediumkontrolle: 41,30%
Colo205 [2]; Colo205 (Colon), 2,5 µg/ml
  Zellwachstum in % der Mediumkontrolle: 84,80%
KAL
  IC50: 45 µg/mL (≈ 171 µM)
BT20
  inhibition at 50 µg/mL: 74%
WI38
  IC50: 4.9 µg/mL (≈ 18.7 µM)
WI38; WI38 (Fibroblasten), 5 µg/ml
  Zellwachstum in % der Mediumkontrolle: 92,90%
WI38; WI38 (Fibroblasten), 10 µg/ml
  Zellwachstum in % der Mediumkontrolle: 10,60%
WI38; WI38 (Fibroblasten), 2,5 µg/ml
  Zellwachstum in % der Mediumkontrolle: 104,7%
Colo205 [3]
  inhibition at 50 µg/mL: 35.6%
SIM
  IC50: > 200 µg/mL
LAN1
  IC50: 4.25 µg/mL (≈ 16.2 µM)
SKOV3
  IC50: 36 µg/mL (≈ 137 µM)
EW-7
  IC50: 0.3 µg/mL (≈ 1.14 µM)
SW620
  IC50: 0.85 µg/mL (≈ 3.24 µM)
U87MG
  IC50: > 200 µg/mL
CRO2B
  IC50: 50 µg/mL (≈ 190 µM)
J82
  IC50: 47 µg/mL (≈ 179 µM)
[1]
  Keimwachstum (grade): +++
T47D [4]
  inhibition at 50 µg/mL: 75.6%
LNCaP
  IC50: 3.25 µg/mL (≈ 12.4 µM)
CaCo-2
  IC50: 17.5 µg/mL (≈ 66.6 µM)
MIAPaCa2
  IC50: 10 µg/mL (≈ 38.1 µM)
MIAPaCa2; MIAPaCa2 (Pankreas), 5 µg/ml
  Zellwachstum in % der Mediumkontrolle: 91,10%
MIAPaCa2; MIAPaCa2 (Pankreas), 10 µg/ml
  Zellwachstum in % der Mediumkontrolle: 74,60%
MIAPaCa2; MIAPaCa2 (Pankreas), 2,5 µg/ml
  Zellwachstum in % der Mediumkontrolle: 84,30%
T47D [5]; T47D (Mamakarzinom), 5 µg/ml
  Zellwachstum in % der Mediumkontrolle: 25,60%
T47D [5]; T47D (Mamakarzinom), 10 µg/ml
  Zellwachstum in % der Mediumkontrolle: 4,90%
T47D [5]; T47D (Mamakarzinom), 2,5 µg/ml
  Zellwachstum in % der Mediumkontrolle: 28,10%

## O=C(/C=C/c1ccc(CO)o1)c1ccccc1O [HMF-3, 3-(5-Hydroxymethylfuran-2-yl)-1-(2-hydroxyphenyl)-propenon]
Colo205 [2]; Colo205 (Colon), 5 µg/ml
  Zellwachstum in % der Mediumkontrolle: 68%
Colo205 [2]; Colo205 (Colon), 10 µg/ml
  Zellwachstum in % der Mediumkontrolle: 82,60%
Colo205 [2]; Colo205 (Colon), 2,5 µg/ml
  Zellwachstum in % der Mediumkontrolle: 85,90%
KAL
  IC50: > 200 µg/mL
BT20
  inhibition at 50 µg/mL: 15.7%
WI38
  IC50: 20 µg/mL (≈ 81.9 µM)
WI38; WI38 (Fibroblasten), 5 µg/ml
  Zellwachstum in % der Mediumkontrolle: 64,70%
WI38; WI38 (Fibroblasten), 10 µg/ml
  Zellwachstum in % der Mediumkontrolle: 81,50%
WI38; WI38 (Fibroblasten), 2,5 µg/ml
  Zellwachstum in % der Mediumkontrolle: 92%
Colo205 [3]
  inhibition at 50 µg/mL: 3.5%
SIM
  IC50: > 200 µg/mL
LAN1
  IC50: 20 µg/mL (≈ 81.9 µM)
SKOV3
  IC50: > 200 µg/mL
EW-7
  IC50: 5.25 µg/mL (≈ 21.5 µM)
SW620
  IC50: 9.7 µg/mL (≈ 39.7 µM)
U87MG
  IC50: > 200 µg/mL
CRO2B
  IC50: > 200 µg/mL
J82
  IC50: > 200 µg/mL
T47D [4]
  inhibition at 50 µg/mL: 57%
LNCaP
  IC50: 9.5 µg/mL (≈ 38.9 µM)
CaCo-2
  IC50: > 200 µg/mL
MIAPaCa2
  IC50: > 200 µg/mL
MIAPaCa2; MIAPaCa2 (Pankreas), 5 µg/ml
  Zellwachstum in % der Mediumkontrolle: 81,80%
MIAPaCa2; MIAPaCa2 (Pankreas), 10 µg/ml
  Zellwachstum in % der Mediumkontrolle: 50,60%
MIAPaCa2; MIAPaCa2 (Pankreas), 2,5 µg/ml
  Zellwachstum in % der Mediumkontrolle: 84,10%
T47D [5]; T47D (Mamakarzinom), 5 µg/ml
  Zellwachstum in % der Mediumkontrolle: 50,00%
T47D [5]; T47D (Mamakarzinom), 10 µg/ml
  Zellwachstum in % der Mediumkontrolle: 50,20%
T47D [5]; T47D (Mamakarzinom), 2,5 µg/ml
  Zellwachstum in % der Mediumkontrolle: 39,10%

## CC(C)=CCOc1ccccc1C(C)=C(C#N)C#N [L5, 2-{1-[2-(3-Methylbut-2-enyloxy}phenyl]ethyliden}-malononitril]
[1]
  Keimwachstum (grade): +++
[6]
  Radikalfänger-Effekt: 60%

## CC(C)=CCOc1ccc(C(C)=C(C#N)C#N)cc1 [LPK1, 2-{1-[4-(3-Methylbut-2-enyloxy)phenyl]ethyiliden}-malononitril]
Salmonella sp
  MHK-Werte: > 1,5 mg/ml
S. epidermides
  MHK-Werte: 0,5-1,0 mg/ml
Rhodococcus equi
  MHK-Werte: > 1,5 mg/ml
Candida albicans
  MHK-Werte: > 1,5 mg/ml
S. falcium
  MHK-Werte: > 1,5 mg/ml
Escherichia coli
  MHK-Werte: > 1,5 mg/ml
S. aureus
  MHK-Werte: > 1,5 mg/ml
Micrococcus luteus
  MHK-Werte: > 1,5 mg/ml
Bacillus subitilis
  MHK-Werte: > 1,5 mg/ml
E. faecium
  MHK-Werte: > 1,5 mg/ml

## C[C@@H]1[C@H](O)[C@@H](C)/C=C/C=C/CC/C=C/C=C/C=C/C=C/C(O[C@H]2O[C@H](C)[C@@H](O)[C@H](N)[C@@H]2O)CC2O[C@](O)(CC(O)C(O)CCC(O)CC(O)CC(O)CC(=O)O[C@H]1C)CC(O)C2C(=O)O (some centres unmarked) [Nistatin, reference compound]
Candida albicans
  MHK-Werte: 0,05** mg/ml and 0,12** mg/ml

## CC(=C(C#N)C#N)c1ccc(O)cc1 [OK, 2-[1-(4-Hydroxyphenyl)ethyliden]malonitril]
S. epidermides
  MHK-Werte: 0,03-0,06 mg/ml
Rhodococcus equi
  MHK-Werte: 0,5-1,0 mg/ml
Candida albicans
  MHK-Werte: 0,5-1,0 mg/ml
S. falcium
  MHK-Werte: 0,5-1,0 mg/ml
Escherichia coli
  MHK-Werte: 0,5-1,0 mg/ml
S. aureus
  MHK-Werte: 0,25-0,5 mg/ml
Micrococcus luteus
  MHK-Werte: 0,12-0,25 mg/ml
Bacillus subitilis
  MHK-Werte: 0,12-0,25 mg/ml
E. faecium
  MHK-Werte: 0,12-0,25 mg/ml
